The source of these data is patent publication US6750228B1, “Aromatic sulfone hydroxamic acid metalloprotease inhibitor” (priority 1997, dated 2004).

Holding throughout (assay): biochemical
The target in one test is T1, MMP-1 (Homo sapiens, UniProt P03956).
T1 construct: made in house; host or cells: transfected HT-1080 cells (provided by Dr. Harold Welgus, Washington University)
T1 sequence (P03956 100-469): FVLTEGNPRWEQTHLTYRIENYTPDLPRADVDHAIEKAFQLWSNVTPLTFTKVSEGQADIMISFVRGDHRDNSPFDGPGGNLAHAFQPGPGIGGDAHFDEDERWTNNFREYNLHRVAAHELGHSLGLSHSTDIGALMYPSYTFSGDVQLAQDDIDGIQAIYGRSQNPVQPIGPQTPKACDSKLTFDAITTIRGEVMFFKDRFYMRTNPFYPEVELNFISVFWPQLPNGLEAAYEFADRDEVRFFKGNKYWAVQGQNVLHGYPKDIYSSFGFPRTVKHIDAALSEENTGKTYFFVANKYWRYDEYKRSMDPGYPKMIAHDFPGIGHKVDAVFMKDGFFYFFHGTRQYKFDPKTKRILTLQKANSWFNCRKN
As to conditions: recombinant human MMP-1, MCA peptide substrate 4 μM, pH 7.5, room temperature; read-out: MMP-1 IC50. Summed up: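 APMA- or trypsin-activated enzymes were preincubated with inhibitor for 5 min at room temperature, then the fluorogenic substrate MCA-Pro-Leu-Gly-Leu-Dpa-Ala-Arg-NH2 was added to a final 4 μM.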

The target of a further test is T2, MMP-13 (Homo sapiens, UniProt P45452).
T2 construct: made in house; host or cells: baculovirus / insect cells
As to conditions: recombinant human MMP-13, MCA peptide substrate 4 μM, pH 7.5, room temperature; read-out: MMP-13 IC50. Summed up: (§1)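 Assay buffer 100 mM Tris-HCl, 100 mM NaCl, 10 mM CaCl2, pH 7.5. Activated MMP + inhibitor, 5 min RT; then methoxycoumarin peptide substrate, 4 μM final. Readout fluorescence; IC50 calculated.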

The target of a further test is T3, MMP-2 (Homo sapiens, UniProt P08253).
T3 construct: made in house; provided by Dr. Gregory Goldberg, Washington University
T3 sequence (P08253 110-660): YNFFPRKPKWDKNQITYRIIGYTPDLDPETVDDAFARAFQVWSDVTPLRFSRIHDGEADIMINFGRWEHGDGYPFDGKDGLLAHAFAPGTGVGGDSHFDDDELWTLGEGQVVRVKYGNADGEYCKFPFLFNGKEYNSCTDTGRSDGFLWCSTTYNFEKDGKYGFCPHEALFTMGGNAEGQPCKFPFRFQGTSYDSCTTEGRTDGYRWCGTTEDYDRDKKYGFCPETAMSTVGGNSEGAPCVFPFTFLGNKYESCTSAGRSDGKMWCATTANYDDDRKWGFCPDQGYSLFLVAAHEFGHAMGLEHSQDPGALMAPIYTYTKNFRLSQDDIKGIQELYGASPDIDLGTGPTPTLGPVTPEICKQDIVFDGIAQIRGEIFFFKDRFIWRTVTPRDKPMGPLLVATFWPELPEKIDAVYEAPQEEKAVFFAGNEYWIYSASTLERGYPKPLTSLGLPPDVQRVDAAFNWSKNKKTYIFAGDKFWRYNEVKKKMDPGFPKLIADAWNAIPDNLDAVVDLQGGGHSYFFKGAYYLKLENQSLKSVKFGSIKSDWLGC
As to conditions: recombinant human MMP-2, MCA peptide substrate 4 μM, pH 7.5, room temperature; read-out: MMP-2 IC50. Summed up: as §1

The IC50 is the midpoint of a concentration-inhibition curve. For the molecule `COCCN1CCN(c2ccc(S(=O)(=O)C3(C(=O)NO)CCOCC3)cc2)CC1` [Example 645], the half-inhibitory concentration (IC50) on MMP-1 was greater than 10000 nM; at MMP-13 it was 370 nM; on MMP-2, 1200 nM.
Taken in the same sequence, the figures for `COc1ccc(C(=O)C2CCN(c3ccc(S(=O)(=O)C4(C(=O)NO)CCOCC4)cc3)CC2)cc1` [Example 647] were greater than 10000 nM, 6 nM and 160 nM.
Take `COc1ccc(COC2CCC(Oc3ccc(S(=O)(=O)C4(C(=O)NO)CCOCC4)cc3)C2)cc1` (stereo not drawn) [Example 648]: the IC50 on MMP-1 is greater than 10000 nM; at MMP-13 it was 25.8 nM; on MMP-2, 110 nM.
Take `O=C(NO)C1(S(=O)(=O)c2ccc(N3CCCN(S(=O)(=O)c4ccccc4)CC3)cc2)CCOCC1` [Example 650]: the IC50 at MMP-1 is greater than 10000 nM; on MMP-13, 14.7 nM; on MMP-2, 1200 nM.
As for `Cc1cccc(COC2CCC(Oc3ccc(S(=O)(=O)C4(C(=O)NO)CCOCC4)cc3)C2)c1` (stereo not drawn) [Example 651], the IC50 on MMP-1 is greater than 10000 nM; at MMP-13, 13.7 nM; at MMP-2, 60 nM.
Taken in the same sequence, the figures for `Cc1ccc(C(=O)C2CCN(c3ccc(S(=O)(=O)C4(C(=O)NO)CCOCC4)cc3)CC2)cc1` [Example 652] were greater than 10000 nM, 0.4 nM and 82 nM.
With `Cc1cccc(C(=O)C2CCN(c3ccc(S(=O)(=O)C4(C(=O)NO)CCOCC4)cc3)CC2)c1` [Example 653], the IC50 was greater than 10000 nM on MMP-1, 0.8 nM at MMP-13 and 160 nM at MMP-2.
For the molecule `O=C(c1ccc(F)cc1)C1CCN(c2ccc(S(=O)(=O)C3(C(=O)NO)CCOCC3)cc2)CC1` [Example 654], the IC50 on MMP-1 is greater than 10000 nM; at MMP-13, 3.2 nM; on MMP-2, 35 nM.
In the case of `COc1ccccc1C(=O)C1CCN(c2ccc(S(=O)(=O)C3(C(=O)NO)CCOCC3)cc2)CC1` [Example 655], the IC50 was greater than 10000 nM on MMP-1, 37.3 nM at MMP-13 and 1400 nM at MMP-2.
For `O=C(c1ccccc1)C1CCN(c2ccc(S(=O)(=O)C3(C(=O)NO)CCOCC3)cc2)CC1` [Example 656], the values for the IC50 at MMP-1, at MMP-13 and at MMP-2 were greater than 10000 nM, 3.1 nM and 120 nM, respectively.
For the molecule `O=C(NCc1ccccc1)N1CC(Oc2ccc(S(=O)(=O)C3(C(=O)NO)CCOCC3)cc2)C1` [Example 658], the IC50 at MMP-1 is greater than 10000 nM; at MMP-13 it was 12.2 nM; on MMP-2, 1000 nM.
Take `O=C(NO)C1(S(=O)(=O)c2ccc(N3CCN(c4ccc(Cl)cc4)CC3)cc2)CCOCC1` [Example 659]: the values for the IC50 on MMP-1, on MMP-13 and on MMP-2 were greater than 10000 nM, 1 nM and 3.7 nM, respectively.
For the molecule `O=C(NO)C1(S(=O)(=O)c2ccc(OC3CCC(OCc4ccccc4Cl)C3)cc2)CCOCC1` (stereo not drawn) [Example 665], the results for the IC50 on MMP-1, on MMP-13 and at MMP-2 were greater than 10000 nM, 2.3 nM and 29.2 nM, respectively.
Regarding `O=C(NO)C1(S(=O)(=O)c2ccc(OC3CCCC(OCc4ccccc4Cl)C3)cc2)CCOCC1` (stereo not drawn) [Example 666], the IC50 at MMP-1 is greater than 10000 nM; on MMP-13, 48.4 nM; on MMP-2 it was 330 nM.
Turning to `O=C(NO)C1(S(=O)(=O)c2ccc(OC3CCC(OCc4cccc(Cl)c4)C3)cc2)CCOCC1` (stereo not drawn) [Example 668], the half-maximal inhibitory concentration (IC50) on MMP-1 is greater than 10000 nM; at MMP-13 it was 2 nM; on MMP-2 it was 25.8 nM.
For the molecule `O=C(NO)C1(S(=O)(=O)c2ccc(OC3CCC(OCc4cccc(Cl)c4)C3)cc2)CCOCC1` (stereo not drawn) [Example 669], the IC50 on MMP-1 is greater than 10000 nM; at MMP-13, 4.3 nM; on MMP-2, 22.7 nM.
On to `Cc1cccc(S(=O)(=O)N2CCN(c3ccc(S(=O)(=O)C4(C(=O)NO)CCOCC4)cc3)CC2)c1` [Example 671], for which the IC50 is greater than 10000 nM on MMP-1, 6 nM on MMP-13 and 130 nM on MMP-2.
On the same counts, the results for `O=C(NO)C1(S(=O)(=O)c2ccc(N3CCN(S(=O)(=O)c4ccccc4OC(F)(F)F)CC3)cc2)CCOCC1` [Example 673] are greater than 10000 nM, 14.8 nM and 455 nM.
`Cc1ccc(S(=O)(=O)N2CCN(c3ccc(S(=O)(=O)C4(C(=O)NO)CCOCC4)cc3)CC2)cc1` [Example 674]: the IC50 was greater than 10000 nM at MMP-1, 8 nM at MMP-13 and 110 nM at MMP-2.
Take `O=C(NO)C1(S(=O)(=O)c2ccc(N3CCN(S(=O)(=O)c4ccccc4C(F)(F)F)CC3)cc2)CCOCC1` [Example 675]: the IC50 came out at 6000 nM on MMP-1, 13 nM at MMP-13 and 88 nM on MMP-2.
Regarding `O=C(NO)C1(S(=O)(=O)c2ccc(N3CCN(S(=O)(=O)c4cccc(C(F)(F)F)c4)CC3)cc2)CCOCC1` [Example 676], the values for the IC50 on MMP-1, at MMP-13 and on MMP-2 were greater than 10000 nM, 7.7 nM and 90 nM, respectively.
`O=C(NO)C1(S(=O)(=O)c2ccc(N3CCN(S(=O)(=O)c4ccc(C(F)(F)F)cc4)CC3)cc2)CCOCC1` [Example 677]: the IC50 at MMP-1 is greater than 10000 nM; at MMP-13, 7 nM; on MMP-2, 34.7 nM.
Regarding `COc1ccc(S(=O)(=O)N2CCN(c3ccc(S(=O)(=O)C4(C(=O)NO)CCOCC4)cc3)CC2)cc1` [Example 678], the IC50 at MMP-1 was greater than 10000 nM; on MMP-13, 5 nM; at MMP-2, 50 nM.
Taken in the same sequence, the figures for `COc1ccc(S(=O)(=O)N2CCN(c3ccc(S(=O)(=O)C4(C(=O)NO)CCOCC4)cc3)CC2)cc1OC` [Example 683] were greater than 10000 nM, 11.3 nM and 290 nM.
Taken in the same sequence, the figures for `O=C(NO)C1(S(=O)(=O)c2ccc(N3CCN(S(=O)(=O)c4cccs4)CC3)cc2)CCOCC1` [Example 685] were greater than 10000 nM, 3 nM and 34.7 nM.
As to `O=C(NO)C1(S(=O)(=O)c2ccc(OC3CCC(OCc4ccccc4Cl)C3)cc2)CCOCC1` (stereo not drawn) [Example 688], the IC50 on MMP-1 is greater than 10000 nM; at MMP-13 it was 17.6 nM; on MMP-2, 110 nM.
Take `N#Cc1ccc(S(=O)(=O)N2CCN(c3ccc(S(=O)(=O)C4(C(=O)NO)CCOCC4)cc3)CC2)cc1` [Example 690]: the figures for the IC50 on MMP-1, at MMP-13 and on MMP-2 were greater than 10000 nM, 7.3 nM and 41.8 nM, respectively.
On the same counts, the results for `O=C(NO)C1(S(=O)(=O)c2ccc(N3CCN(S(=O)(=O)c4cccc5nsnc45)CC3)cc2)CCOCC1` [Example 691] are greater than 10000 nM, 10 nM and 130 nM.
On the same counts, the results for `O=C(NO)C1(S(=O)(=O)c2ccc(N3CCC4CCCCC4C3)cc2)CCOCC1` (stereo not drawn) [Example 692] are greater than 10000 nM, 10 nM and 22.7 nM.
For `CC(C)(C)OC1CCN(c2ccc(S(=O)(=O)C3(C(=O)NO)CCOCC3)cc2)CC1` [Example 693], the IC50 was greater than 10000 nM at MMP-1, 210 nM at MMP-13 and 1900 nM at MMP-2.
Turning to `COc1cccc(COC2CCC(Oc3ccc(S(=O)(=O)C4(C(=O)NO)CCOCC4)cc3)C2)c1` (stereo not drawn) [Example 694], the IC50 is greater than 10000 nM at MMP-1, 3.1 nM at MMP-13 and 23.2 nM on MMP-2.
`O=C(NO)C1(S(=O)(=O)c2ccc(N3CCN(c4ccc(OC(F)(F)F)cc4)CC3)cc2)CCOCC1` [Example 695]: the results for the concentration for half-maximal inhibition (IC50) on MMP-1, on MMP-13 and on MMP-2 were greater than 10000 nM, 2 nM and 22.7 nM, respectively.
Taken in the same sequence, the figures for `COc1cccc(S(=O)(=O)N2CCN(c3ccc(S(=O)(=O)C4(C(=O)NO)CCOCC4)cc3)CC2)c1` [Example 696] were greater than 10000 nM, 10 nM and 140 nM.
For `O=C(NO)C1(S(=O)(=O)c2ccc(N3CCCN(S(=O)(=O)c4ccc(C(F)(F)F)cc4)CC3)cc2)CCOCC1` [Example 697], the figures for the IC50 on MMP-1, at MMP-13 and at MMP-2 were greater than 10000 nM, 18.1 nM and 1500 nM, respectively.
